One data set deals with S. mutans. The conditions noted are these: Kubo et al. 1993; cited from earlier work.
The conditions of data set [1]: background statement; cited from earlier work.
Data set [2] deals with bacteria and fungi in the test, except S. mutans and P. acnes. The data set can be described thus: MIC test, all bacteria and fungi except S. mutans and P. acnes. The class given is cell-based. The conditions noted are these: all of the bacteria and fungi in the test. The source says: (§1) The microorganisms tested were from the American Type Culture Collection (Rockville, Md.). They are Bacillus subtilis ATCC 9372, Brevibacterium ammoniagenes ATCC 6872, Staphylococcus aureus ATCC 12598, Streptococus mutans ATCC 25175, Propionibacterium acnes ATCC 11827, Pseudimonas aeruginosa ATCC 10145, Enterobacter aerogenes ATCC 13048, Eschericia coli ATCC 9637, Proteus vulgaris ATCC […], Saccharomyces cerevisiae ATCC 7754, Candida utilis ATCC 9226, Pityrosporum ovale ATCC 14521, Penicillium chrysogenum ATCC 10106 and Trichophyton mentagrophytes ATCC 18748.
(§2) The bacterial culture media except for S. mutans was 0.8% nutrient broth (BBL), 0.5% yeast Extract (Difco) and 0.1% glucose (NYG broth). S. mutans was cultured in 3.7% brain heart infixsion broth (Difco). All fungi, except P. ovale and T. mentagrophytes were cultured in a 2.5% malt extract broth (BBL). P. ovale was cultured in 1% bactopeptone (Difco), 0.5% yeast extract, 1% glucose and 0.1% corn oil. For T. mentagrophytes the culture media was 1% bactopeptone and 4% glucose.
Freeze dried samples were prepared for testing as follows. […]
The minimum inhibitory concentration (MIC) of the 3-alken-2-ones (compounds 1-4, 6-8) and 3,13-tetradecadien-2-one (compound 5) was performed using a two-fold serial broth dilution. […] The MIC was determined as the lowest concentration for each compound that no growth was observed. […]

Data set [3] has as its system Eschericia coli ATCC 9637. The data set can be described thus: MIC by two-fold serial broth dilution. The class given is cell-based. The conditions noted are these: Escherichia coli, ATCC9637, 48 h; E. coli; NYG broth; two days, turbidity OD 660 nm.
Description: as §1, §2
(§3) Freeze dried samples were prepared for testing as follows. B. subtilis, S. cerevisiae, C. utilis, and P. ovale, were shake-cultured for two days at 30° C. P. chrysogenum and T. mentagrophytes were shake-cultured for 5 days at 30° C. B. ammoniagenes and E. aerogenes were stationarily cultured at 30° C. S. aureus, S. mutans, P. acnes, P. aeruginosa, E. coli and P. vulgaris were stationarily cultured at 37° C.
(§4) The minimum inhibitory concentration (MIC) of the 3-alken-2-ones (compounds 1-4, 6-8) and 3,13-tetradecadien-2-one (compound 5) was performed using a two-fold serial broth dilution. Each test compound was dissolved in DMF and 30 μL of this sample was dissolved in 3 mL of the applicable medium. A 30 μL sample of the previously described culture of each microorganism was added to the various medium solutions. After two days, the cultures of B. subtilis, S. cerevisiae, C. utilis B. ammoniagenes, E. aerogenes, S. aureus, S. mutans, P. acnes, P. aeruginosa, E. coli and P. vulgaris were examined for turbidity (OD at 660 nm). The fungi, P. ovale, P. chrysogenum and T. mentagrophytes, were examined visually for growth at 3 days (P. ovale) and 5 days (P. chrysogenum and T. mentagrophytes). The MIC was determined as the lowest concentration for each compound that no growth was observed. The highest concentration used in these tests was 800 μg/mL.
(In general: Broth dilution looks for growth in wells or tubes with falling amounts of substance.)

The subject of data set [4] is Proteus vulgaris ATCC 133315. The data set can be described thus: MIC by two-fold serial broth dilution. The class given is cell-based. The conditions noted are these: ATCC133315, 48 h, P. vulgaris, NYG broth, two days, turbidity OD 660 nm.
Description: as §1, §2, §3, §4

Data set [5] relates to Bacillus subtilis ATCC 9372. The data set can be described thus: MIC by two-fold serial broth dilution. The class given is cell-based. The conditions noted are these: Bacillus subtilis, ATCC9372, 48 h; B. subtilis; NYG broth; two days, turbidity OD 660 nm.
Description: as §1, §2, §3, §4

Data set [6] relates to Pseudimonas aeruginosa ATCC 10145. The data set can be described thus: MIC by two-fold serial broth dilution. The class given is cell-based. The conditions noted are these: Pseudomonas aeruginosa, ATCC10145, 48 h; P. aeruginosa; NYG broth; two days, turbidity OD 660 nm.
Description: as §1, §2, §3, §4

In data set [7] the test system is Pityrosporum ovale ATCC 14521. The data set can be described thus: MIC by two-fold serial broth dilution. The class given is cell-based. The conditions noted are these: 72 h; P. ovale; bactopeptone/yeast extract/glucose/corn oil; 3 days, visual.
Description: as §1, §2, §3, §4

The subject of data set [8] is Streptococus mutans ATCC 25175. The data set can be described thus: MIC by two-fold serial broth dilution. The class given is cell-based. The conditions noted are these: S. mutans.
Description: as §1, §2, §3, §4

Data set [9] deals with Propionibacterium acnes ATCC 11827. The data set can be described thus: MIC by two-fold serial broth dilution. The class given is cell-based. The conditions noted are these: P. acnes.
Description: as §1, §2, §3, §4

The subject of data set [10] is Brevibacterium ammoniagenes ATCC 6872. The data set can be described thus: MIC by two-fold serial broth dilution. The conditions noted are these: Corynebacterium ammoniagenes, ATCC6872, 48 h; B. ammoniagenes; NYG broth; two days, turbidity OD 660 nm. The class given is cell-based.
Description: as §1, §2, §3, §4

For data set [11], the system named is Trichophyton mentagrophytes ATCC 18748. The data set can be described thus: MIC by two-fold serial broth dilution. The conditions noted are these: ATCC18748, 120 h, T. mentagrophytes, bactopeptone/glucose, 5 days, visual. The class given is cell-based.
Description: as §1, §2, §3, §4

The test system of data set [12] is Staphylococcus aureus ATCC 12598. The data set can be described thus: MIC by two-fold serial broth dilution. The class given is cell-based. The conditions noted are these: Staphylococcus aureus, ATCC12598, 48 h; S. aureus; NYG broth; two days, turbidity OD 660 nm.
Description: as §1, §2, §3, §4

For data set [13], the system named is Penicillium chrysogenum ATCC 10106. The data set can be described thus: MIC by two-fold serial broth dilution. The class given is cell-based. The conditions noted are these: Penicillium chrysogenum, ATCC10106, 120 h; P. chrysogenum; malt extract broth; 5 days, visual.
Description: as §1, §2, §3, §4

For data set [14], the system named is Saccharomyces cerevisiae ATCC 7754. The data set can be described thus: MIC by two-fold serial broth dilution. The class given is cell-based. The conditions noted are these: Saccharomyces cerevisiae, ATCC7754, 48 h; S. cerevisiae; malt extract broth; two days, turbidity OD 660 nm.
Description: as §1, §2, §3, §4

Data set [15] relates to Enterobacter aerogenes ATCC 13048. The data set can be described thus: MIC by two-fold serial broth dilution. The class given is cell-based. The conditions noted are these: Klebsiella aerogenes, ATCC13048, 48 h; E. aerogenes; NYG broth; two days, turbidity OD 660 nm.
Description: as §1, §2, §3, §4

Another data set concerns Candia utilis ATCC 9226. The data set can be described thus: MIC by two-fold serial broth dilution. The class given is cell-based, Candida utilis. The conditions noted are these: Williopsis jadinii, ATCC9226, 48 h; C. utilis; malt extract broth; two days, turbidity OD 660 nm.
Description: as §1, §2, §3, §4

The test system of the next data set is fungi. The conditions noted are these: Moleyar et al. 1986; cited from earlier work.

≈ marks a conversion by molar mass, not a printed value.

In the case of `CC(=O)/C=C/C1C(C)=CCCC1(C)C` (stereo not drawn) [α-ionone], in the data set on S. mutans, the “antibacterial activity (in words)” value was “moderate antibacterial activity”.

As to `CC(=O)/C=C/C1=C(C)CCCC1(C)C` [β-ionone], the “antibacterial activity (in words)” value with S. mutans is “moderate antibacterial activity”.

As for ionone, in data set [1], the allergic skin reactions result is given as “can cause allergic skin reactions”.

The term MIC denotes the lowest concentration found to suppress growth. Low readings indicate greater potency, high ones weaker potency. As for `CCCCCCCCCCCC/C=C/C(C)=O` [Compound 7, (E)-3-Hexadecen-2-one], the “activity (in words)” value in data set [2] is “inactive”; in data set [8] it was “weakly active”; in [9], “strong activity”. In addition, the MIC was > 800 µg/mL in data set [3]; > 800 µg/mL in data set [4]; > 800 µg/mL in data set [5]; > 800 µg/mL in data set [6]; > 800 µg/mL in data set [7]; 400 µg/mL (≈ 1.68 mM) in data set [8] (Streptococcus mutans, ATCC25175, 48 h, brain heart infusion broth, two days, turbidity OD 660 nm). Moreover, the MIC in data set [9] (Cutibacterium acnes, ATCC11827, 48 h, NYG broth, two days, turbidity OD 660 nm) is 3.13 µg/mL (≈ 0.0131 mM); in data set [10], > 800 µg/mL; in data set [11] it was > 800 µg/mL; in data set [12], > 800 µg/mL; in data set [13], > 800 µg/mL; in data set [14] it was > 800 µg/mL. Moreover, the minimum inhibitory concentration (MIC) (in [15]; with Candia utilis ATCC 9226) was > 800 µg/mL throughout.

With `C=C(C)C1CC=C(C)C(=O)C1` (stereo not drawn) [Carvone], the “antifungal activity (in words)” value with fungi was “antifungal activity”.

The values are drawn from patent publication US5604262A, “Topical antimicrobial agents” (Research Corporation Technologies, Inc., priority 1995, dated 1997).
